Patent US8188277B2, “Aromatic compounds for suppressing the generation of collagen” (Otsuka Pharmaceutical Co., Ltd., priority 2004, dated 2012)

Row | SMILES | melting point
1 | COc1ccc(CN2CCCN(c3ccc(Oc4ccc(NC(=O)c5ccc(Cl)c(Cl)c5)cn4)c(C)c3)C2=O)cc1OC [compound 1187] | 117 to 118 °C
2 | CN(CC(=O)N1CCN(Cc2ccc3c(c2)OCO3)CC1)c1ccc(Oc2ccc(NS(=O)(=O)c3ccc(Cl)c(Cl)c3)cn2)c(F)c1 [compound 1615, 3,4-dichloro-N-[6-(2-fluoro-4-{methyl[2-oxo-2-(4-piperonylpiperazin-1-yl)ethyl]amino}phenoxy)pyridin-3-yl]benzenesulfonamide] | 185.6 to 187 °C
3 | Cc1cc(N(C)CC(=O)N2CCN(Cc3ccccc3)CC2)ccc1Oc1ccc(NC(=O)c2ccc(Cl)c(Cl)c2)cn1 [compound 1516] | 111 to 113 °C
4 | O=C(Nc1ccc(Oc2ccc(N3CCN(C(=O)c4ccc5c(c4)OCO5)CC3)cc2)cc1)c1ccc(Cl)c(Cl)c1 [compound 2053] | 116 to 118 °C
5 | O=C(Nc1ccc(Oc2ccc(C3=CCN(C(=O)CN4CCOCC4)CC3)cc2)cc1)c1ccc(Cl)c(Cl)c1 [compound 2565] | 195 to 197 °C
6 | Cc1cc(N2CCCN(Cc3ccc4c(c3)OCO4)C2=O)ccc1Oc1ccc(NC(=O)c2ccc(C(F)(F)F)cc2)cn1 [compound 1183] | 165 to 166 °C
7 | CC(=O)N(CC(=O)N1CCN(Cc2ccc3c(c2)OCO3)CC1)c1ccc(Oc2ccc(NC(=O)c3ccc(Cl)c(Cl)c3)cn2)c(C)c1 [compound 725] | 216 to 217 °C
8 | Cc1cc(N(C)CC(=O)N2CCN(Cc3ccccc3)CC2)ccc1Oc1ccc(NC(=O)c2ccc(C(F)(F)F)cc2)cn1 [compound 1515] | 110 to 111 °C
9 | CCOC(=O)c1ccc(N2CCCN(c3ccc(Oc4ccc(NC(=O)c5ccc(C(F)(F)F)cc5)cn4)c(C)c3)C2=O)cc1 [compound 1188] | 160 to 161 °C
10 | CCN(CC(=O)N1CCN(Cc2ccoc2)CC1)c1ccc(Oc2ccc(NC(=O)c3ccc(C(F)(F)F)cc3)cn2)c(OC)c1 [compound 784] | 174 to 176 °C
11 | O=C(Nc1ccc(Oc2ccc(N3CCN(Cc4ccccc4)C3=O)cc2)nc1)c1ccc(Cl)c(Cl)c1 [compound 1182] | 186 to 187 °C
12 | O=C(Nc1ccc(Oc2ccc(N3CCN(C(=O)COc4ccccc4)CC3)cc2)cc1)c1ccc(Cl)c(Cl)c1 [compound 2052] | 171 to 173 °C
13 | CC(=O)N(CC(=O)N1CCN(Cc2ccccc2)CC1)c1ccc(Oc2ccc(NC(=O)c3ccc(C(F)(F)F)cc3)cn2)cc1 [compound 771] | 161 to 162 °C
14 | O=C(Nc1ccc(Oc2ccc(CCC(=O)N3CCN(c4cccnc4)CC3)cc2)cc1)c1ccc(Cl)c(Cl)c1 [compound 466] | 153 to 155 °C
15 | CN(CC(=O)N1CCN(Cc2ccc3c(c2)OCO3)CC1)c1ccc(Oc2ccc(NC(=O)c3ccc(Cl)c(Cl)c3)cn2)c(F)c1 [compound 729] | 199 to 201 °C
16 | Cc1cc(N2CCCN(Cc3ccc4c(c3)OCO4)C2=O)ccc1Oc1ccc(NC(=O)c2ccc(Cl)c(Cl)c2)cn1 [compound 1184] | 122 to 124 °C
17 | O=C(Nc1ccc(Oc2ccc(C(=O)N3CCN(c4ccccn4)CC3)cc2)nc1)c1ccc(C(F)(F)F)cc1 [compound 176] | 222 to 224 °C
18 | O=C(Nc1ccc(Oc2ccc(N3CCN(C(=O)CN4CCOCC4)CC3)cc2)cc1)c1ccc(Cl)c(Cl)c1 [compound 2559] | 177 to 178 °C

Row | SMILES | melting point
19 | O=C(Nc1ccc(Oc2ccc(N3CCN(S(=O)(=O)c4ccccc4)CC3)cc2)cc1)c1ccc(Cl)c(Cl)c1 [compound 2031, N-{4-[4-(4-benzenesulfonylpiperazin-1-yl)phenoxy]phenyl}-3,4-dichlorobenzamide] | 191 to 192 °C
20 | O=C(Nc1ccc(Oc2ccc(C(=O)N3CCOCC3)cc2)c(F)c1)c1ccc(Cl)c(Cl)c1 [Example No. 11] | 203 to 204 °C
21 | CCN(CC(=O)N1CCN(Cc2ccc3c(c2)OCO3)CC1)c1ccc(Oc2ccc(NS(=O)(=O)c3ccc(C(F)(F)F)cc3)cn2)c(F)c1 [compound 2712, N-[6-(4-{[2-(4-piperonylpiperazin-1-yl)-2-oxoethyl]ethylamino}-2-fluorophenoxy)pyridin-3-yl]-4-trifluoromethylbenzenesulfonamide] | 177.8 to 180.1 °C
22 | COc1ccc(CN2CCCN(c3ccc(Oc4ccc(NC(=O)c5ccc(C(F)(F)F)cc5)cn4)c(C)c3)C2=O)cc1OC [compound 1185] | 155 to 157 °C
23 | O=C(Nc1ccc(Oc2ccc(N3CCN(Cc4ccccc4)C3=O)cc2)nc1)c1ccc(C(F)(F)F)cc1 [compound 1181] | 203 to 204 °C
24 | O=C(Nc1ccc(Oc2ccc(CCC(=O)N3CCN(c4cccnc4)CC3)cc2)c(F)c1)c1ccc(Cl)c(Cl)c1 [compound 467] | 183 to 185 °C
25 | CCN(CC(=O)N1CCN(Cc2ccc3c(c2)OCO3)CC1)c1ccc(Oc2ccc(NC(=O)c3ccc(C(F)(F)F)cc3)cn2)cc1 [compound 774] | 178 to 180 °C
26 | O=C(C1CCN(c2ccc(Oc3ccc(NS(=O)(=O)c4ccc(Cl)c(Cl)c4)cn3)cc2)CC1)N1CCN(Cc2ccccc2)CC1 [compound 2710, N-(6-{4-[4-(4-benzylpiperazine-1-carbonyl)piperidin-1-yl]phenoxy}pyridin-3-yl)-3,4-dichlorobenzenesulfonamide] | 185 to 189 °C
27 | CCN(CC(=O)N1CCN(Cc2ccc3c(c2)OCO3)CC1)c1ccc(Oc2ccc(NC(=O)c3ccc(C(F)(F)F)cc3)cn2)c(F)c1 [compound 775] | 170 to 172 °C
28 | CC(=O)N(CC(=O)N1CCN(Cc2ccc3c(c2)OCO3)CC1)c1ccc(Oc2ccc(NC(=O)c3ccc(Cl)c(Cl)c3)cn2)c(F)c1 [compound 730] | 233 to 235 °C
29 | Cc1cc(N2CCN(Cc3ccc4c(c3)OCO4)C2=O)ccc1Oc1ccc(NC(=O)c2ccc(C(F)(F)F)cc2)cn1 [compound 1504, N-{6-[2-methyl-4-(2-oxo-3-piperonylimidazolidin-1-yl)phenoxy]pyridin-3-yl}-4-trifluoromethylbenzamide] | 188 to 189 °C
30 | O=C(Nc1ccc(Oc2ccc(C(=O)N3CCOCC3)cc2)cc1)c1ccc(Cl)c(Cl)c1 [Example No. 10] | 189 to 192 °C
31 | CCN(CC(=O)N1CCN(Cc2ccccc2)CC1)c1ccc(Oc2ccc(NC(=O)c3ccc(Cl)c(Cl)c3)cn2)c(C)c1 [compound 1514] | 102 to 105 °C
32 | Cc1cc(N2CCC(CC(=O)N3CCN(Cc4ccc5c(c4)OCO5)CC3)CC2)ccc1Oc1ccc(NS(=O)(=O)c2ccc(C(F)(F)F)cc2)cn1 [compound 2703, N-[6-(4-{4-[2-(4-piperonylpiperazin-1-yl)-2-oxoethyl]piperidin-1-yl}-2-methylphenoxy)pyridin-3-yl]-4-trifluoromethylbenzenesulfonamide] | 156 to 158 °C
33 | Cc1cc(N2CCCN(CC(=O)N3CCN(Cc4ccc5c(c4)OCO5)CC3)C2=O)ccc1Oc1ccc(NC(=O)c2ccc(C(F)(F)F)cc2)cn1 [compound 1186] | 182 to 183.5 °C
34 | COc1cc(N(C)CC(=O)N2CCN(Cc3ccoc3)CC2)ccc1Oc1ccc(NC(=O)c2ccc(C(F)(F)F)cc2)cn1 [compound 785] | 160 to 164 °C
35 | O=C(Nc1ccc(Oc2ccc(C(O)CN3CCOCC3)cc2)c(F)c1)c1ccc(Cl)c(Cl)c1 (centres unmarked) [compound 2677] | 142 to 145 °C
